Several values for one entry are separate records, joined by “and”; a condition that tells them apart may be missing. Equal values may be shown once. Read-outs that look alike come from different tables or passages of the source.
How the values were obtained:
[1] = tested on: HT-29 (ATCC HTB-38) human colorectal adenocarcinoma; assay: tumor cytotoxicity assay (resazurin), HT-29; format: cell-based; settings: HT-29, 48 h
Method: HT-29 (ATCC HTB-38) a human colorectal adenocarcinoma was maintained in McCoy's complete medium (McCoy's 5A medium with L-glutamine and 25 mM HEPES supplemented with 10% FBS, 1 mM Na pyruvate, 1X NEAA, 2 mM L-glutamine, and Pen/Strep at 100 IU/ml and 100 μg/ml, respectively). Cell lines were cultured at 37° C., 5% CO2 in a 95% humidified incubator. For tumor cytotoxicity assays HT-29, PC-3, or B16-F10 cells were seeded at 5×10^3, 5×10^3 or 1.25×10^3 cells/well cells were seeded at 5,000 cells/well in 90 μl complete media into a Corning 3904 black-walled, clear-bottom tissue culture plate and the plate were incubated overnight to allow cells to establish and enter log phase growth. Jurkat cells were seeded on the day of compound addition at 2×10^4 cells/well in 90 μl complete media into a Corning 3904 black-walled, clear-bottom tissue culture plate. 20 mM stock solutions of the compound of Formula (I) were prepared in 100% DMSO and stored at −20° C. 10×concentrated serial dilutions of the compounds were prepared in appropriate culture medium for final concentrations ranging from 2×10–5 to 2×10–12. Ten μl volumes of the 10×serial dilutions were added to the test wells in triplicate and the plates returned to the incubator for 48 hours. The final concentration of DMSO was 0.25% in all samples. […] Because living cells metabolize Resazurin, the fluorescence of the reduction product of Resazurin was measured using a Fusion microplate fluorometer (Packard Bioscience) with λex=535 nm and λem=590 nm filters. The plates were removed and resazurin fluorescence was measured using 530 nm excitation and 590 nm emission filters in a Fusion fluorimeter (Packard Instruments). […] The data were analyzed using Prism software (GraphPad Software). The data were normalized to the average of the cells treated with media only (100% cell growth) and EC50 values were determined using a standard sigmoidal dose response curve fitting algorithm.

[2] = tested on: PC-3 (ATCC CRL-1435) human prostate adenocarcinoma; assay: tumor cytotoxicity assay (resazurin), PC-3; format: cell-based; settings: 48 h, read-out: EC50 for the PC3 assay
[3] = tested on: Jurkat (ATCC TIB-152) human acute T cell leukemia; assay: tumor cytotoxicity assay (resazurin), Jurkat; format: cell-based
Method: (§1) Jurkat (ATCC TIB-152) a human acute T cell leukemia was maintained in RPMI complete medium (RPMI 1640 medium supplemented with 10% FBS, 2 mM L-glutamine, 10 mM HEPES, 1 mM Na pyruvate, 1X NEAA, and Pen/Strep at 100 IU/ml and 100 μg/ml, respectively). Cell lines were cultured at 37° C., 5% CO2 in a 95% humidified incubator. For tumor cytotoxicity assays HT-29, PC-3, or B16-F10 cells were seeded at 5×10^3, 5×10^3 or 1.25×10^3 cells/well cells were seeded at 5,000 cells/well in 90 μl complete media into a Corning 3904 black-walled, clear-bottom tissue culture plate and the plate were incubated overnight to allow cells to establish and enter log phase growth. […] Because living cells metabolize Resazurin, the fluorescence of the reduction product of Resazurin was measured using a Fusion microplate fluorometer (Packard Bioscience) with λex=535 nm and λem=590 nm filters. The plates were removed and resazurin fluorescence was measured using 530 nm excitation and 590 nm emission filters in a Fusion fluorimeter (Packard Instruments). […] The data were analyzed using Prism software (GraphPad Software). The data were normalized to the average of the cells treated with media only (100% cell growth) and EC50 values were determined using a standard sigmoidal dose response curve fitting algorithm.

[4] = tested on: B16-F10 (ATCC CRL-6475) mouse melanoma; assay: tumor cytotoxicity assay (resazurin), B16-F10; format: cell-based
Method: as §1, with “B16-F10” for “Jurkat”, “CRL-6475)” for “TIB-152)”, “mouse melanoma” for “human acute T cell leukemia”, “in” for “in RPMI”, “DMEM (DMEM” for “medium (RPMI 1640 medium”, “HEPES,” for “HEPES, 1 mM Na pyruvate, 1X NEAA,”

[5] = tested on: Escherichia coli ATCC 610100; assay: antimicrobial resazurin growth assay, E. coli; format: cell-based; settings: ATCC610100, 37° C., 4 to 6 hours
Method: (§2) The biological characteristics of compound of Formula (I) were evaluated in Escherichia coli ATCC 610100, Pseudomonas aeruginosa ATCC 614000, Haemophilus influenzae A21515, Staphylococcus aureus, methicillin resistant (MRSA) ATCC 605000, Enterococcus faecalis ATCC 662000, Streptococcus pneumoniae ATCC 661100 and Candida glabrata ATCC 200918. All cultures were maintained in Brain Heart Infusion Medium (Oxoid), except C. glabrata, which was maintained in Potato Dextrose Broth (Difco).
(§3) For antimicrobial assays of E. coli, P. aeruginosa, H. influenzae, MRSA, E. faecalis and S. pneumoniae, the cells in Brain Heart Infusion Medium were added to 96 well plates at a volume of 176 μl/well. The compound to be tested was added to the wells (20 μl/well) together with 10 μl of 0.2 mg/ml resazurin (Sigma). The plates were incubated at 37° C. for 4 to 6 hours. The growth of the cultures was monitored by measuring the fluorescence of the plates using a fluorometer with λex=535 nm and λem=590 nm filters. Resazurin dye without cells was used to determine the background, which was subtracted from the data for all experimental wells. The data were analyzed using Prism software (GraphPad Software). The data were normalized to the average of the cells treated with media only (100% cell growth) and the IC50 values were determined using a standard sigmoidal dose response curve fitting algorithm.

[6] = tested on: Pseudomonas aeruginosa ATCC 614000; assay: antimicrobial resazurin growth assay, P. aeruginosa; format: cell-based; settings: ATCC614000, 37° C., 4 to 6 hours
Method: as §2, §3

[7] = tested on: Haemophilus influenzae A21515; assay: antimicrobial resazurin growth assay, H. influenzae; format: cell-based; settings: 37° C., 4 to 6 hours
Method: as §2, §3

[8] = tested on: Staphylococcus aureus, methicillin resistant (MRSA) ATCC 605000; assay: antimicrobial resazurin growth assay, MRSA; format: cell-based; settings: 37° C., 4 to 6 hours
Method: as §2, §3

[9] = tested on: Enterococcus faecalis ATCC 662000; assay: antimicrobial resazurin growth assay, E. faecalis; format: cell-based; settings: ATCC662000, 37° C., 4 to 6 hours
Method: as §2, §3

[10] = tested on: Streptococcus pneumoniae ATCC 661100; assay: antimicrobial resazurin growth assay, S. pneumoniae; format: cell-based; settings: ATCC661100, 37° C., 4 to 6 hours
Method: as §2, §3

[11] = tested on: Candida glabrata ATCC 200918; assay: antimicrobial resazurin growth assay, C. glabrata; format: cell-based; settings: Nakaseomyces glabratus, ATCC200918; Potato Dextrose medium
[12] = tested on: Staphylococcus aureus (MSSA); assay: susceptibility assay by broth microdilution (NCCLS), MSSA; format: cell-based; settings: Staphyloccus aureus MSSA
Method: (§4) The anti-infective potential of the compound was re-evaluated in susceptibility assays performed by broth microdilution in accordance with National Committee for Clinical Laboratory Standards (NCCLS) guidelines, M7-A5, January 2000. The compound was tested versus the following microorganisms: Staphylococcus aureus (MSSA), Staphylococcus aureus (MRSA), Streptococcus pneumoniae, vancomycin-sensitive Enterococcus faecalis, Haemophilus influenzae, Pseudomonas aeruginosa and Candida albicans.

[13] = tested on: Staphylococcus aureus (MRSA); assay: susceptibility assay by broth microdilution (NCCLS), MRSA; format: cell-based; settings: Staphyloccus aureus MRSA
Method: as §4

[14] = tested on: Streptococcus pneumoniae 49619; assay: susceptibility assay by broth microdilution (NCCLS), S. pneumoniae; format: cell-based
Method: as §4

[15] = tested on: vancomycin-sensitive Enterococcus faecalis; assay: susceptibility assay by broth microdilution (NCCLS), E. faecalis; format: cell-based; settings: Enterococcus faecalis VSE
Method: as §4

Escherichia coli imp = assay: susceptibility assay by broth microdilution (NCCLS), E. coli; format: cell-based
[16] = tested on: Haemophilus influenzae 49766; assay: susceptibility assay by broth microdilution (NCCLS), H. influenzae; format: cell-based
Method: as §4

[17] = tested on: Pseudomonas aeruginosa 27853; assay: susceptibility assay by broth microdilution (NCCLS), P. aeruginosa; format: cell-based; settings: Pseudomona aeruginosa 27853
Method: as §4

Candida albicans 90028 = assay: susceptibility assay by broth microdilution (NCCLS), C. albicans; format: cell-based
Method: as §4

solubility (observation) = format: physicochemical

## CCC/C=C/CC1C/C=C/C=C(C)/C=C/C=C\C(O)CC(O)C(O)/C=C/C=C/C=C/C(=O)N1 (stereo not drawn) [compound of Formula (I)]
[1]; compound alone, read-out: EC50 in the HT-29 assay
  EC50: 0.922 µg/mL and 2.03 µM
[1]; compound with interferon, read-out: EC50 in the HT-29 assay
  EC50: 0.263 µg/mL and 580 nM
[1]; further evaluation (Table 2), read-out: HT-29 EC50
  EC50: 3.62 ± 2.57 µM
[2]; compound alone
  EC50: 1.29 µg/mL and 2.84 µM
[2]; compound with TNF-α
  EC50: 0.988 µg/mL and 2.18 µM
[3]; further evaluation (Table 2), 48 hours, read-out: Jurkat EC50
  EC50: 2330 ± 1110 nM
[3]; one set of evaluations, unit inferred, read-out: EC50 for the Jurkat cells
  EC50: 2330 ± 1110 nM
[4]; further evaluation (Table 2), 48 hours, read-out: B16-F10 EC50
  EC50: 2160 ± 870 nM
[4]; one set of evaluations, unit inferred, read-out: EC50 for the B16-F10 cells
  EC50: 2160 ± 870 nM
[5]
  IC50: > 4 µg/mL
[6]
  IC50: > 4 µg/mL
[7]
  IC50: > 4 µg/mL
[8]
  IC50: 1 µg/mL and 2.2 µM
[9]
  IC50: 3 µg/mL and 6.6 µM
[10]
  IC50: 4 µg/mL and 8.8 µM
[11]
  IC50: 3 µg/mL and 6.6 µM
[12]
  MLC: >32 µg/mL
[12]; Staphylococcus aureus
  MIC: > 32 µg/mL
[13]
  MLC: >32 µg/mL
[13]; Staphylococcus aureus
  MIC: 12 µg/mL
[14]
  MIC: 32 µg/mL
  MLC: >32 µg/mL
[15]
  MIC: 32 µg/mL
  MLC: >32 µg/mL
Escherichia coli imp; Escherichia coli
  MIC: > 32 µg/mL
Escherichia coli imp; Escherichia coli imp
  MLC: >32 µg/mL
[16]
  MIC: > 32 µg/mL
  MLC: >32 µg/mL
[17]
  MLC: >32 µg/mL
[17]; Pseudomonas aeruginosa
  MIC: > 32 µg/mL
Candida albicans 90028
  MIC: > 32 µg/mL
  MLC: >32 µg/mL
Solubility (observation)
  solubility: substantially insoluble

Source: US7112581B2, “Macrocyclic lactams” (Nereus Pharmaceuticals, Inc., priority 2002, dated 2006)
